Like-named read-outs stand apart in the source and are kept apart here.
Assay: Plasma pharmacokinetics after single and repeated oral doses
Assay type: in vivo, healthy adult participants (human)
Conditions: for Time to steady state (Tss), 50% median, point estimate / Time to steady state (Tss), 90% quantile, point estimate: overall; for AUC / AUC(0-t) / Cmax / Tmax / Vd/F: human, plasma, oral; for Vd/F: read-out: Vz/F, mean
Experimental: In Part 1a, plasma samples were collected before dosing and at 10 post-dose timepoints on Day 1 (30 minutes, 1 hour, followed by every hour until 6 hours, and then every 2 hours until 12 hours), and single samples on Day 2 (at 24 hours) and Day 3 (at 48 hours). In Part 1b, timepoints included at least pre-dose and at 10 post-dose timepoints, including plasma sampling at the same time of CSF sampling. In Part 2, on Day 1 and Day 14, plasma samples were collected at pre-dose and at 10 to 11 post-dose timepoints. In addition, plasma samples were collected on Days 2, 3, 5, 7, 11, 15, 16, and 17.
PK population included all participants exposed to Compound 1 with no major or critical deviations related to Compound 1 and for whom PK data were considered sufficient and interpretable. PK parameters were summarized by descriptive statistics for each dose level group. Distribution of Tmax values was represented by histogram plots for each dose level group. In Part 1a, dose proportionality was assessed using a linear model on Cmax, AUClast and AUC. In Part 2, all PK analyses were performed separately for each regimen (OD and BID). Steady state was assessed on Ctrough using a non-linear model. Accumulation was assessed using a linear model on log-transformed accumulation ratio. Dose proportionality was assessed using a power model on Cmax and AUCtau on Day 1 and Day 14, separately. Variance components of log-transformed Cmax and AUCtau were estimated using a linear model. In Part 1b, CSF concentration was described by dose level group and CSF to plasma unbound concentration ratios calculated were described in the same way. 4β-hydroxycholesterol on Day 14 versus Day 1 pre-dose concentration ratios were summarized using descriptive statistics by dose level group and point estimates with 90% confidence interval (90% CI) for the geometric mean of the log-transformed Day14/Day1 ratio was calculated in Part 2.

[1] = Part 2, cohorts at 10 and 20 mg QD
[2] = Part 2, cohorts at 15 and 20 mg BID
[3] = Part 2 Day 1, 10 mg QD, tau 24 hours
[4] = Part 2 Day 1, 15 mg BID, fasted
[5] = Part 2 Day 1, 20 mg BID, fasted
[6] = Part 2 Day 1, 20 mg BID, tau 12 hours
[7] = Part 2 Day 14 steady state, 10 mg QD
[8] = Part 2 Day 14 steady state, 15 mg BID
[9] = Part 2 Day 14 steady state, 20 mg BID
[10] = Part 2 Day 14 steady state, 20 mg QD
[11] = Part 2 Day 14 steady state, 20 mg QD, tau 24 hours

## CC(C)(C(=O)N1CCOc2c(C#N)cncc2C1)C(F)F [Compound 1, 4-(3,3-difluoro-2,2-dimethyl-propanoyl)-3,5-dihydro-2H-pyrido[3,4-f] [1,4]oxazepine-9-carbonitrile]
[1]
  Time to steady state (Tss), 50% median, point estimate: 1.81 days
  Time to steady state (Tss), 90% quantile, point estimate: 2.45 days
[2]
  Time to steady state (Tss), 50% median, point estimate: 1.43 days
  Time to steady state (Tss), 90% quantile, point estimate: 1.65 days
Part 2 Day 1, 10 mg QD, fasted
  Cmax, Gmean: (157) [20.7] ng/mL
  Tmax, median: 1.00 h
[3]
  AUCtau, Gmean: (1080) h*ng/ml
  AUCtau, mean ± SD: 1110 ± 268 ng·h/mL
[4]
  Cmax, Gmean: (211) [44.2] ng/mL
  Tmax, median: 1.00 h
Part 2 Day 1, 15 mg BID, tau 12 hours
  AUCtau, Gmean: (1100) [33.1] h*ng/ml
[5]
  Cmax, Gmean: (205) [20.3] ng/mL
  Cmax, mean ± SD: 209 ± 42.4 ng/mL
  Tmax, median: 2.00 h
[6]
  AUCtau, Gmean: (1350) h*ng/ml
  AUCtau, mean ± SD: 1370 ± 252 ng·h/mL
Part 2 Day 1, 20 mg QD, fasted
  Cmax, Gmean: (240) [20.2] ng/mL
  Tmax, median: 1.50 h
Part 2 Day 1, 20 mg QD, tau 24 hours
  AUCtau, Gmean: (1860) [22.5 h*ng/ml
Part 2 Day 14, 10 mg QD
  CLSS/F, Gmean: (7.08) [25.9] L/h
  CLSS/F, mean ± SD: 7.30 ± 1.89 L/h
  Ctrough, Gmean: (19.9) [57.0] ng/mL
  Ctrough, mean ± SD: 22.8 ± 13.0 ng/mL
  T1/2z, Gmean: (8.87) [23.2] h
  T1/2z, mean ± SD: 9.07 ± 2.11 h
Part 2 Day 14, 15 mg BID
  CLSS/F, Gmean: (9.16) [30.0] L/h
  CLSS/F, mean ± SD: 9.54 ± 2.86 L/h
  Ctrough, Gmean: (79.3) [33.0] ng/mL
  Ctrough, mean ± SD: 83.7 ± 27.4 ng/mL
  T1/2z, Gmean: (7.21) [15.6] h
  T1/2z, mean ± SD: 7.29 ± 1.14 h
Part 2 Day 14, 20 mg BID
  CLSS/F, Gmean: (9.27) [24.9] L/h
  CLSS/F, mean ± SD: 9.53 ± 2.37 L/h
  Ctrough, Gmean: (99.3) [40.0] ng/mL
  Ctrough, mean ± SD: 107 ± 42.7 ng/mL
  T1/2z, Gmean: (7.37) [23.0] h
  T1/2z, mean ± SD: 7.54 ± 1.74 h
Part 2 Day 14, 20 mg QD
  CLSS/F, Gmean: (9.40) [22.2] L/h
  CLSS/F, mean ± SD: 9.60 ± 2.14 L/h
  Ctrough, Gmean: (30.4) [49.0] ng/mL
  Ctrough, mean ± SD: 34.2 ± 16.6 ng/mL
  T1/2z, Gmean: (8.53) [19.0] h
  T1/2z, mean ± SD: 8.68 ± 1.65 h
[7]
  Cmax, Gmean: (158) [31.9] ng/mL
  Tmax, median: 1.00 h
Part 2 Day 14 steady state, 10 mg QD, tau 24 hours
  AUCtau, Gmean: (1410) [27.4] h*ng/mL
[8]
  Cmax, Gmean: (268) [36.3] ng/mL
  Tmax, median: 1.00 h
Part 2 Day 14 steady state, 15 mg BID, tau 12 hours
  AUCtau, Gmean: (1640) [32.5] h*ng/mL
[9]
  Cmax, Gmean: (353) [19.9] ng/mL
  Tmax, median: 1.00 h
Part 2 Day 14 steady state, 20 mg BID, tau 12 hours
  AUCtau, Gmean: (2160) [25.9] h*ng/mL
[10]
  Cmax, Gmean: (250) [22.7] ng/mL
  Tmax, median: 2.00 h
[11]
  AUCtau, Gmean: (2130) [21.4] h*ng/mL
  AUCtau, mean ± SD: 2170 ± 465 ng·h/mL
Pooled doses QD
  Accumulation ratio (AUC0-24h), Day 14/Day 1: ~1.22
QD cohorts
  Within-subject variability for AUCtau: 8.0%
  Within-subject variability for Cmax: 15.8%
QD dosing regimen
  Total variability for AUCtau: 21.6%
  Total variability for Cmax: 20.6%
10 mg, Part 1a single 10 mg fasted, read-out: AUC, mean
  AUC: 1250 ng·h/mL
10 mg, Part 1a single 10 mg fasted, read-out: AUClast, mean
  AUC(0-t): 1200 ng·h/mL
10 mg, Part 1a single 10 mg fasted, read-out: Cmax, mean
  Cmax: 119 ng/mL
10 mg, Part 1b single 10 mg fed, read-out: AUC, mean
  AUC: 1460 ng·h/mL
10 mg, Part 1b single 10 mg fed, read-out: AUClast, mean
  AUC(0-t): 1220 ng·h/mL
10 mg, Part 2 Day 1, 10 mg QD, fasted, read-out: Cmax, mean ± SD
  Cmax: 161 ± 33.2 ng/mL
10 mg, Part 2 Day 14 steady state, 10 mg QD, tau 24 hours, read-out: AUCtau, mean ± SD
  AUC: 1460 ± 399 ng·h/mL
10 mg, Part 2 Day 14 steady state, 10 mg QD, read-out: Cmax, mean ± SD
  Cmax: 164 ± 52.3 ng/mL
15 mg, Part 2 Day 1, 15 mg BID, fasted, read-out: Cmax, mean ± SD
  Cmax: 229 ± 101 ng/mL
15 mg, Part 2 Day 1, 15 mg BID, tau 12 hours, read-out: AUCtau, mean ± SD
  AUC: 1150 ± 380 ng·h/mL
15 mg, Part 2 Day 14 steady state, 15 mg BID, tau 12 hours, read-out: AUCtau, mean ± SD
  AUC: 1710 ng·h/mL
15 mg, Part 2 Day 14 steady state, 15 mg BID, read-out: Cmax, mean ± SD
  Cmax: 284 ng/mL
20 mg, 20 mg BID, read-out: AUC0-24 h (corresponding to AUC0-12 h*2)
  AUC(0-t): 15 µM·h
20 mg, 20 mg BID, read-out: Mean observed Cmax
  Cmax: 1220 nM
20 mg, 20 mg QD, MAD study, read-out: Mean observed AUC0-24 at steady state
  AUC(0-t): 7.35 µM·h
20 mg, Part 1a single 20 mg fasted, read-out: Cmax, mean
  Cmax: 245 ng/mL
20 mg, Part 2 Day 1, 20 mg QD, fasted, read-out: Cmax, mean ± SD
  Cmax: 245 ± 49.5 ng/mL
20 mg, Part 2 Day 1, 20 mg QD, tau 24 hours, read-out: AUCtau, mean ± SD
  AUC: 1910 ± 429 ng·h/mL
20 mg, Part 2 Day 14 steady state, 20 mg BID, tau 12 hours, read-out: AUCtau, mean ± SD
  AUC: 2220 ± 574 ng·h/mL
20 mg, Part 2 Day 14 steady state, 20 mg BID, read-out: Cmax, mean ± SD
  Cmax: 359 ± 71.6 ng/mL
20 mg, Part 2 Day 14 steady state, 20 mg QD, read-out: Cmax, mean ± SD
  Cmax: 255 ± 58 ng/mL
30 mg, Part 1a single 30 mg fasted, read-out: AUC, mean
  AUC: 2570 ng·h/mL
30 mg, Part 1a single 30 mg fasted, read-out: AUClast, mean
  AUC(0-t): 2540 ng·h/mL
30 mg, Part 1a single 30 mg fasted, read-out: Cmax, mean
  Cmax: 439 ng/mL
40 mg, Part 1a single 40 mg fasted, read-out: AUC, mean
  AUC: 5460 ng·h/mL
40 mg, Part 1a single 40 mg fasted, read-out: AUClast, mean
  AUC(0-t): 5390 ng·h/mL
40 mg, Part 1a single 40 mg fasted, read-out: Cmax, mean
  Cmax: 576 ng/mL
40 mg, Part 1b single 40 mg fed, read-out: AUC, mean
  AUC: 5060 ng·h/mL
40 mg, Part 1b single 40 mg fed, read-out: AUClast, mean
  AUC(0-t): 4100 ng·h/mL
40 mg, Part 1b single 40 mg fed, read-out: Cmax, mean
  Cmax: 381 ng/mL
Part 1a, single 10 to 40 mg, fasted, read-out: Median tmax across doses
  Tmax: 1 to 1.5 h
Part 2, single or repeated administration, fasted, read-out: Median Tmax across dose levels
  Tmax: 1 to 2 h
Part 1a single 40 mg fasted
  Vd/F: 71.7 L
Part 1b single 10 mg fed
  Vd/F: 86 L
